These results are taken from BindingDB's records for doi:10.1016/j.ejmech.2014.11.002 (Universitat Rovira I Virgili, 2015).

Experiment [1] addresses Cytosolic beta-glucosidase (Bos taurus). Description: Inhibition of bovine liver beta-glucosidase at pH 5.5 incubated for 10 to 30 mins using beta-D-glycopyranoside substrate by spectrophotometry.
Experiment [2] shares this target. Description: Inhibition of bovine liver beta-glucosidase at pH 7.3 incubated for 10 to 30 mins using beta-D-glycopyranoside substrate by spectrophotometry.

Molecules are shown by their SMILES.

On to `OC[C@H]1O[C@@H]2N=C(SCCCCCCCCCCCCCCCCF)O[C@@H]2[C@@H](O)[C@@H]1O`, for which the inhibitory constant (Ki) – broadly, the dissociation constant of the complex between target and ligand, obtained from inhibition or displacement – in experiment [1] is 66 µM; in experiment [2], 11.1 µM.

Turning to `COC(=O)CCCCCCCCCCCCCCCSC1=N[C@H]2O[C@H](CO)[C@@H](O)[C@H](O)[C@H]2O1`, the Ki was 45 µM in experiment [1] and 26.4 µM in experiment [2].
